Measurements: patent publication US20240279214A1, “ALPHA4 BETA7 INEGRIN ANTAGONISTS AND USES THEREOF” (XinThera, Inc., priority 2022, published 2024)
Read-outs that look alike come from different tables or passages of the source.

Conditions: ether bond, 13-membered ring, 100.0 °C

Compound: CCOC(=O)C[C@@H]1NC(=O)C(n2cc(CCCN(C)C)c(C(F)(F)F)cc2=O)c2cc(ccc2F)Oc2cccc(C)c2-c2cc(C)c(F)c1c2 (stereo in doubt)
- ring closure, isolated yield (from CCOC(=O)C[C@H](NC(=O)C(c1cc(Br)ccc1F)n1cc(CCCN(C)C)c(C(F)(F)F)cc1=O)c1cc(-c2c(C)cccc2O)cc(C)c1F, CuI/K2CO3/(1R,2R)-N1,N2-dimethylcyclohexane-1,2-diamine, 1,4-dioxane, 62.0 mM, 16.0 h): 55.6%

Compound: CCOC(=O)C[C@@H]1NC(=O)C(n2cc(CCN(C)C)c(C(F)(F)F)cc2=O)c2cc(ccc2F)Oc2cccc(C)c2-c2cc(C)c(F)c1c2 (stereo in doubt)
- ring closure, isolated yield (from CCOC(=O)C[C@H](NC(=O)C(c1cc(Br)ccc1F)n1cc(CCN(C)C)c(C(F)(F)F)cc1=O)c1cc(-c2c(C)cccc2O)cc(C)c1F, CuI/K2CO3/(1R,2R)-N1,N2-dimethylcyclohexane-1,2-diamine, 1,4-dioxane, 56.0 mM, 16.0 h): 70%

Compound: CCOC(=O)C[C@@H]1NC(=O)C(n2cc(CCN(C)C)c(C(F)(F)F)cc2=O)c2cccc(c2)Oc2cccc(C)c2-c2cc(C)c(F)c1c2 (stereo in doubt)
- ring closure, isolated yield (from CCOC(=O)C[C@H](NC(=O)C(c1cccc(Br)c1)n1cc(CCN(C)C)c(C(F)(F)F)cc1=O)c1cc(-c2c(C)cccc2O)cc(C)c1F, CuI/K2CO3/(1R,2R)-N1,N2-dimethylcyclohexane-1,2-diamine, 1,4-dioxane, 66.7 mM, 16.0 h): 61.3%

Compound: CCOC(=O)C[C@@H]1NC(=O)C(n2cc(CCN(C)C)c(C(F)(F)F)cc2=O)c2cccc(c2)Oc2cccc(C)c2-c2cc1c(F)c(C(F)(F)F)c2 (stereo in doubt)
- ring closure, isolated yield (from CCOC(=O)C[C@H](NC(=O)C(c1cccc(Br)c1)n1cc(CCN(C)C)c(C(F)(F)F)cc1=O)c1cc(-c2c(C)cccc2O)cc(C(F)(F)F)c1F, CuI/(1R,2R)-N1,N2-dimethylcyclohexane-1,2-diamine/K2CO3, dioxane, 68.3 mM, 16.0 h): 55.5%

Compound: CCOC(=O)C[C@@H]1NC(=O)C(n2cc(CCN3CC(F)C3)c(C(F)(F)F)cc2=O)c2cc(cc(C(F)(F)F)c2)Oc2cccc(C)c2-c2cc(C)c(F)c1c2 (stereo in doubt)
- ring closure, isolated yield (from CCOC(=O)C[C@H](NC(=O)C(c1cc(Br)cc(C(F)(F)F)c1)n1cc(CCN2CC(F)C2)c(C(F)(F)F)cc1=O)c1cc(-c2c(C)cccc2O)cc(C)c1F, CuI/K2CO3/(1R,2R)-N1,N2-dimethylcyclohexane-1,2-diamine, dioxane, 90.0 mM, 2.0 h): 69%

Compound: CCOC(=O)C[C@@H]1NC(=O)C(n2cc(CCN3CC(F)C3)c(C(F)(F)F)cc2=O)c2cc(ccc2Cl)Oc2cccc(C)c2-c2cc(C)c(F)c1c2 (stereo in doubt)
- ring closure, isolated yield (from CCOC(=O)C[C@H](NC(=O)C(c1cc(Br)ccc1Cl)n1cc(CCN2CC(F)C2)c(C(F)(F)F)cc1=O)c1cc(-c2c(C)cccc2O)cc(C)c1F, CuI/K2CO3/(1R,2R)-N1,N2-dimethylcyclohexane-1,2-diamine, 1,4-dioxane, 26.7 mM, 16.0 h): 50.3%

Compound: CCOC(=O)C[C@@H]1NC(=O)C(n2cc(CCN3CC(F)C3)c(C(F)(F)F)cc2=O)c2cc(ccc2F)Oc2cc(Cl)cc(C)c2-c2cc(C)c(F)c1c2 (stereo in doubt)
- ring closure, isolated yield (from CCOC(=O)C[C@H](NC(=O)C(c1cc(Br)ccc1F)n1cc(CCN2CC(F)C2)c(C(F)(F)F)cc1=O)c1cc(-c2c(C)cc(Cl)cc2O)cc(C)c1F, CuI/(1R,2R)-N1,N2-dimethylcyclohexane-1,2-diamine/K2CO3, dioxane, 47.0 mM, 16.0 h): 52.5%

Compound: CCOC(=O)C[C@@H]1NC(=O)C(n2cc(CCN3CC(F)C3)c(C(F)(F)F)cc2=O)c2cc(ccc2F)Oc2cc(F)cc(C)c2-c2cc(C)c(F)c1c2 (stereo in doubt)
- ring closure, isolated yield (from CCOC(=O)C[C@H](NC(=O)C(c1cc(Br)ccc1F)n1cc(CCN2CC(F)C2)c(C(F)(F)F)cc1=O)c1cc(-c2c(C)cc(F)cc2O)cc(C)c1F, CuI/K2CO3/(1R,2R)-N1,N2-dimethylcyclohexane-1,2-diamine, dioxane, 30.0 mM, 16.0 h): 48.2%

Compound: CCOC(=O)C[C@@H]1NC(=O)C(n2cc(CCN3CC(F)C3)c(C(F)(F)F)cc2=O)c2cc(ccc2F)Oc2ccc(C)c(C)c2-c2cc(C)c(F)c1c2 (stereo in doubt)
- ring closure, isolated yield (from CCOC(=O)C[C@H](NC(=O)C(c1cc(Br)ccc1F)n1cc(CCN2CC(F)C2)c(C(F)(F)F)cc1=O)c1cc(-c2c(O)ccc(C)c2C)cc(C)c1F, CuI/(1R,2R)-N1,N2-dimethylcyclohexane-1,2-diamine/K2CO3, dioxane, 15.0 mM, 16.0 h): 64.7%

Compound: CCOC(=O)C[C@@H]1NC(=O)C(n2cc(CCN3CC(F)C3)c(C(F)(F)F)cc2=O)c2cc(ccc2F)Oc2ccc(F)c(C)c2-c2cc(C)c(F)c1c2 (stereo in doubt)
- ring closure, isolated yield (from CCOC(=O)C[C@H](NC(=O)C(c1cc(Br)ccc1F)n1cc(CCN2CC(F)C2)c(C(F)(F)F)cc1=O)c1cc(-c2c(O)ccc(F)c2C)cc(C)c1F, CuI/K2CO3/(1R,2R)-N1,N2-dimethylcyclohexane-1,2-diamine, dioxane, 34.0 mM, 16.0 h): 55.2%

Compound: CCOC(=O)C[C@@H]1NC(=O)C(n2cc(CCN3CC(F)C3)c(C(F)(F)F)cc2=O)c2cc(ccc2F)Oc2cccc(C(F)(F)F)c2-c2cc(C)c(F)c1c2 (stereo in doubt)
- ring closure, isolated yield (from CCOC(=O)C[C@H](NC(=O)C(c1cc(Br)ccc1F)n1cc(CCN2CC(F)C2)c(C(F)(F)F)cc1=O)c1cc(-c2c(O)cccc2C(F)(F)F)cc(C)c1F, CuI/K2CO3/N1,N2-dimethylcyclohexane-1,2-diamine, dioxane, 16.7 mM, 16.0 h): 66.7%

Compound: CCOC(=O)C[C@@H]1NC(=O)C(n2cc(CCN3CC(F)C3)c(C(F)(F)F)cc2=O)c2cc(ccc2F)Oc2cccc(C)c2-c2cc(C(F)F)c(F)c1c2 (stereo in doubt)
- ring closure, isolated yield (from CCOC(=O)C[C@H](NC(=O)C(c1cc(Br)ccc1F)n1cc(CCN2CC(F)C2)c(C(F)(F)F)cc1=O)c1cc(-c2c(C)cccc2O)cc(C(F)F)c1F, CuI/(1R,2R)-N1,N2-dimethylcyclohexane-1,2-diamine/K2CO3, 1,4-dioxane, 17.3 mM, 16.0 h): 50.2%

Compound: CCOC(=O)C[C@@H]1NC(=O)C(n2cc(CCN3CC(F)C3)c(C(F)(F)F)cc2=O)c2cc(ccc2F)Oc2cccc(C)c2-c2cc(C3CC3)c(F)c1c2 (stereo in doubt)
- ring closure, isolated yield (from CCOC(=O)C[C@H](NC(=O)C(c1cc(Br)ccc1F)n1cc(CCN2CC(F)C2)c(C(F)(F)F)cc1=O)c1cc(-c2c(C)cccc2O)cc(C2CC2)c1F, CuI/K2CO3/(1R,2R)-N1,N2-dimethylcyclohexane-1,2-diamine, dioxane, 25.0 mM, 16.0 h): 67.3%

Compound: CCOC(=O)C[C@@H]1NC(=O)C(n2cc(CCN3CC(F)C3)c(C(F)(F)F)cc2=O)c2cc(ccc2F)Oc2cccc(C)c2-c2cc(Cl)c(F)c1c2 (stereo in doubt)
- ring closure, isolated yield (from CCOC(=O)C[C@H](NC(=O)C(c1cc(Br)ccc1F)n1cc(CCN2CC(F)C2)c(C(F)(F)F)cc1=O)c1cc(-c2c(C)cccc2O)cc(Cl)c1F, CuI/K2CO3/(1R,2R)-N1,N2-dimethylcyclohexane-1,2-diamine, 1,4-dioxane, 46.7 mM, 16.0 h): 64.9%

Compound: CCOC(=O)C[C@@H]1NC(=O)C(n2cc(CCN3CC(F)C3)c(C(F)(F)F)cc2=O)c2cc(ccc2F)Oc2cccc(C)c2-c2cc(F)c(F)c1c2 (stereo in doubt)
- ring closure, isolated yield (from CCOC(=O)C[C@H](NC(=O)C(c1cc(Br)ccc1F)n1cc(CCN2CC(F)C2)c(C(F)(F)F)cc1=O)c1cc(-c2c(C)cccc2O)cc(F)c1F, CuI/K2CO3/N1,N2-dimethylcyclohexane-1,2-diamine, 1,4-dioxane, 51.7 mM, 16.0 h): 44.4%

Compound: CCOC(=O)C[C@@H]1NC(=O)C(n2cc(CCN3CC(F)C3)c(C(F)(F)F)cc2=O)c2cc(ccc2F)Oc2cccc(Cl)c2-c2cc(C)c(F)c1c2 (stereo in doubt)
- ring closure, isolated yield (from CCOC(=O)C[C@H](NC(=O)C(c1cc(Br)ccc1F)n1cc(CCN2CC(F)C2)c(C(F)(F)F)cc1=O)c1cc(-c2c(O)cccc2Cl)cc(C)c1F, CuI/(1R,2R)-N1,N2-dimethylcyclohexane-1,2-diamine, 1,4-dioxane, 70.0 mM, 16.0 h): 49.7%

Compound: CCOC(=O)C[C@@H]1NC(=O)C(n2cc(CCN3CC(F)C3)c(C(F)(F)F)cc2=O)c2cccc(c2)Oc2cccc(C)c2-c2cc(C)c(F)c1c2 (stereo in doubt)
- ring closure, isolated yield (from CCOC(=O)C[C@H](NC(=O)C(c1cccc(Br)c1)n1cc(CCN2CC(F)C2)c(C(F)(F)F)cc1=O)c1cc(-c2c(C)cccc2O)cc(C)c1F, CuI/K2CO3, dioxane, 42.0 mM, 16.0 h): 33.4%

Compound: CCOC(=O)C[C@@H]1NC(=O)C(n2cc(CCN3CC(F)C3)cc(CC)c2=O)c2cc(ccc2F)Oc2cccc(C)c2-c2cc(C)c(F)c1c2 (stereo in doubt)
- ring closure, isolated yield (from CCOC(=O)C[C@H](NC(=O)C(c1cc(Br)ccc1F)n1cc(CCN2CC(F)C2)cc(CC)c1=O)c1cc(-c2c(C)cccc2O)cc(C)c1F, CuI/(1R,2R)-N,N'-dimethylcyclohexane-1,2-diamine/K2CO3, dioxane, 40.0 mM, 16.0 h): 46.5%

Compound: CCOC(=O)C[C@@H]1NC(=O)C(n2ccc(C(F)(F)F)c(C3CC3)c2=O)c2cc(ccc2F)Oc2cccc(C)c2-c2cc(C)c(F)c1c2 (stereo in doubt)
- ring closure, isolated yield (from CCOC(=O)C[C@H](NC(=O)C(c1cc(Br)ccc1F)n1ccc(C(F)(F)F)c(C2CC2)c1=O)c1cc(-c2c(C)cccc2O)cc(C)c1F, CuI/K2CO3/(1R,2R)-N1,N2-dimethylcyclohexane-1,2-diamine, dioxane, 45.0 mM): 46.7%

Compound: ethyl 2-((5S,8S)-1^4,4^4-difluoro-5-(5-(2-(3-fluoroazetidin-1-yl)ethyl)-2-oxo-4-(trifluoromethyl)pyridin-1(2H)-yl)-2^6-methyl-6-oxo-3-oxa-7-aza-1,4(1,3),2(1,2)-tribenzenacyclooctaphane-8-yl)acetate
- ring closure, isolated yield (CuI/K2CO3/(1R,2R)-N1,N2-dimethylcyclohexane-1,2-diamine, 1,4-dioxane, 52.0 mM): 74.2%

Compound: ethyl 2-[(14S,17S)-14-{5-[3-(azetidin-1-yl) propyl]-2-oxo-4-(trifluoromethyl) pyridin-1-yl}-12,19-difluoro-3,20-dimethyl-15-oxo-8-oxa-16-azatetracyclo [16.3.1.1^{9,13}.0^{2,7}] tricosa-1(22),2(7),3,5,9,11,13(23),18,20-nonaen-17-yl] acetate
- ring closure, isolated yield (CuI/K2CO3/(1R,2R)-N1,N2-dimethylcyclohexane-1,2-diamine, 1,4-dioxane, 46.7 mM): 62.8%
